Test system: 138582-337-R-J1-PDC spheroids with HUVEC/MSC, viability
Assay: Anticancer human tumor 138582-337-R-J1-PDC patient-derived Merkel cell tumor cell line growth inhibition [IpAb]
Conditions: for IC50: curve of first compound; for viability, T/C: stronger effect = lower value
From the text: Combinatorial screen of targeted agents with ipatasertib and abemaciclib in multi-cell type tumor spheroids
A high-throughput screen of multi-cell type tumor spheroids was designed to identify active combinations of targeted small molecules and ipatasertib or abemaciclib. Complex spheroids include a stromal component modeled by human endothelial cells (HUVEC) and fibroblasts modeled by human mesenchymal stem cells (MSCs). The concentration ranges selected for each drug and investigational agent were based upon clinically achievable concentrations if the clinical Cmax of the agent was known.
Compounds. The drugs and investigational agents: ipatasertib (NSC767898), abemaciclib(NSC768073), selumetinib (NSC741078), trametinib (758246), adavosertib (NSC754352), everolimus (NSC733504), sapanisertib (NSC764658), vemurafenib (NSC761431), venetoclax (NSC766270), copanlisib (NSC809693), apelisib (NSC765974), palbociblib (NSC758247), vemurafenib (NSC761431), dabrafenib (NSC764134), ravoxertinib (NSC781343), BMS-387032 (NSC767048), sotorasib (NSC818433), talazoparib (NSC767125) and afursertib (NSC778305), were obtained from the National Cancer Institute (NCI) Developmental Therapeutics Program Chemical Repository. The FDA-approved anticancer drug set is available from the NCI Developmental Therapeutics Program. […] The stock solutions were prepared in dimethyl sulfoxide (DMSO, Sigma-Aldrich, St. Louis, MO, cat. D2650) at 800-fold the tested concentration and stored at -70 degrees C prior to their use. All drugs and investigational agents were tested over a range starting from a high concentration at or near the clinical Cmax and decreasing in half-log increments. If the clinical Cmax for an agent had not been determined, the highest concentration tested was 10 microM.
NCI60 Cell Culture. NCI60 cell lines were obtained from the NCI Developmental Therapeutics Program Tumor Repository. For each lot of cells, the Repository performed Applied Biosystems AmpFLSTR Identifiler testing with PCR amplification to confirm consistency with the published Identifier STR profile for each cell line. Cells were kept in continuous culture for no more than 20 passages. The optimal seeding densities for each of the cell lines at each time point assessed were determined prior to performing the concentration response studies. Briefly, the NCI60 human tumor lines were grown as monolayers in RPMI 1640 medium supplemented with 10% FBS and 2 mmol/L L-glutamine.
An additional 9 lines were from the NCI60 cell line panel including MDA-MB-231 breast carcinoma, MDA-MB-468 breast carcinoma, MCF7 breast carcinoma, Hs578T breast carcinoma, MALME-3M melanoma, SK-MEL-2 melanoma, SK-OV-3 ovarian carcinoma, DU-145 prostate carcinoma, PC-3 prostate carcinoma, all cell lines along with major genetic alterations are listed on Table 2. Pooled donor human umbilical vein endothelial cells (HUVEC, Lonza, cat. CC-2519) and human mesenchymal stem cells (hMSC, Lonza, cat. PT-2501) were purchased from Lonza (Walkersville, MD).
PDMR cell lines were grown in complete medium (DC medium): Dulbecco's modified Eagle's medium (DMEM)/F12 supplemented with 5% fetal bovine serum (FBS), 2 mM L-glutamine, 100 U/mL penicillin and 100 µg/ml streptomycin, 0.4 µg/ml hydrocortisone, 10 ng/ml epidermal growth factor (EGF) recombinant human protein, 24 µg/mL adenine, and 0.1 mg/mL primocin. During culture from frozen stock vials, PDMR cells were cultured in the same medium containing 10 µM Y-27632 (see Table 3). The PDCs were cultured in complete DMEM/F12 media without 10 microM Y-27632 dihydrochloride for at least two passages prior to the screen. The pooled donor HUVEC and hMSC were cultured in endothelial cell growth medium 2 (PromoCell, Heidelberg, Germany, cat. C-22011) and mesenchymal stem cell growth medium 2 (PromoCell, cat. C-28009), respectively. For all experiments, HUVEC and hMSC were used at passages </=5.
[…]

[1] = second compound 0.1 µM, first compound 0.0316 µM
[2] = second compound 0.1 µM, first compound 0.1 µM
[3] = second compound 0.1 µM, first compound 0.316 µM
[4] = second compound 0.1 µM, first compound 1 µM
[5] = second compound 0.1 µM, first compound 3.16 µM
[6] = second compound 0.1 µM, first compound 10 µM
[7] = second compound 0.316 µM, first compound 0.0316 µM
[8] = second compound 0.316 µM, first compound 0.1 µM
[9] = second compound 0.316 µM, first compound 0.316 µM
[10] = second compound 0.316 µM, first compound 1 µM
[11] = second compound 0.316 µM, first compound 3.16 µM
[12] = second compound 0.316 µM, first compound 10 µM
[13] = second compound 1 µM, first compound 0.0316 µM
[14] = second compound 1 µM, first compound 0.1 µM
[15] = second compound 1 µM, first compound 0.316 µM
[16] = second compound 1 µM, first compound 1 µM
[17] = second compound 1 µM, first compound 3.16 µM
[18] = second compound 1 µM, first compound 10 µM
[19] = second compound 3.16 µM, first compound 0.0316 µM
[20] = second compound 3.16 µM, first compound 0.1 µM
[21] = second compound 3.16 µM, first compound 0.316 µM
[22] = second compound 3.16 µM, first compound 1 µM
[23] = second compound 3.16 µM, first compound 3.16 µM
[24] = second compound 3.16 µM, first compound 10 µM
[25] = second compound 10 µM, first compound 0.0316 µM
[26] = second compound 10 µM, first compound 0.1 µM
[27] = second compound 10 µM, first compound 0.316 µM
[28] = second compound 10 µM, first compound 1 µM
[29] = second compound 10 µM, first compound 3.16 µM
[30] = second compound 10 µM, first compound 10 µM
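Also: spheroids exposed to compounds for seven days.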
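For viability, T/C in this document: 100% = DMSO vehicle control viability.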

SMILES | IC50 (second compound 0.1 µM) [µM] | IC50 (second compound 0.316 µM) [µM] | IC50 (second compound 1 µM) [µM] | IC50 (second compound 3.16 µM) [µM] | IC50 (second compound 10 µM) [µM] | viability, T/C [1] [%] | viability, T/C [2] [%] | viability, T/C [3] [%] | viability, T/C [4] [%] | viability, T/C [5] [%] | viability, T/C [6] [%] | viability, T/C [7] [%] | viability, T/C [8] [%] | viability, T/C [9] [%] | viability, T/C [10] [%] | viability, T/C [11] [%] | viability, T/C [12] [%] | viability, T/C [13] [%] | viability, T/C [14] [%] | viability, T/C [15] [%] | further results
CC1(C)CCC(CN2CCN(c3ccc(C(=O)NS(=O)(=O)c4ccc(NCC5CCOCC5)c([N+](=O)[O-])c4)c(Oc4cnc5[nH]ccc5c4)c3)CC2)=C(c2ccc(Cl)cc2)C1 + CC(C)NCC(C(=O)N1CCN(c2ncnc3c2C(C)CC3O)CC1)c1ccc(Cl)cc1 | > 10 | > 10 | > 10 | < 0.0316 | < 0.0316 | 83.6 | 73.6 | 78.5 | 75.1 | 74.5 | 76.6 | 73 | 69.8 | 67 | 71.4 | 63.3 | 71.2 | 65.2 | 63.5 | 63.8 | viability, T/C [16]: 60.9%; viability, T/C [17]: 60.2%; viability, T/C [18]: 63.8%; viability, T/C [19]: 51.2%; viability, T/C [20]: 50.7%; viability, T/C [21]: 46.9%; viability, T/C [22]: 50.3%; viability, T/C [23]: 49.6%; viability, T/C [24]: 32.3%; viability, T/C [25]: 43.7%; viability, T/C [26]: 41.7%; viability, T/C [27]: 41.3%; viability, T/C [28]: 38.3%; viability, T/C [29]: 47.1%; viability, T/C [30]: 11%
CCCS(=O)(=O)Nc1ccc(F)c(C(=O)c2c[nH]c3ncc(-c4ccc(Cl)cc4)cc23)c1F + CC(C)NCC(C(=O)N1CCN(c2ncnc3c2C(C)CC3O)CC1)c1ccc(Cl)cc1 | > 10 | > 10 | 4.18 | < 0.0316 | < 0.0316 | 87.4 | 86.3 | 88.9 | 89.7 | 102 | 68.2 | 73.2 | 77.2 | 66 | 68 | 71.7 | 51.6 | 67.3 | 61.2 | 61.3 | viability, T/C [16]: 54.5%; viability, T/C [17]: 58%; viability, T/C [18]: 36%; viability, T/C [19]: 47.2%; viability, T/C [20]: 48.5%; viability, T/C [21]: 47.1%; viability, T/C [22]: 45%; viability, T/C [23]: 42.5%; viability, T/C [24]: 21.3%; viability, T/C [25]: 41.8%; viability, T/C [26]: 47.8%; viability, T/C [27]: 43.7%; viability, T/C [28]: 35.7%; viability, T/C [29]: 31.1%; viability, T/C [30]: 1.88%

— PubChem BioAssay AID2060343 (Molecular Pharmacology Branch, DTP, NCI, 2025)
